Consider 25 compounds from BindingDB's records for doi:10.1021/acs.jmedchem.6b01751 (Queen Mary University of London, 2017).

The term IC50 denotes the concentration that inhibits the measured activity by half.

Each structure is given as a SMILES string.

A short description of the first experiment: Inhibition of RIP1 in mouse L929 cells assessed as reduction in TNFalpha/QVD-Oph-induced necrosis after 24 hrs by Cell Titer-Glo luminescent cell viability assay. A general note: ATP-based viability assays read luminescence as a measure of living cells.
Turning to `CN1C(=O)[C@@H](NC(=O)c2n[nH]c(Cc3ccccc3)n2)COc2ccccc21`, the IC50 came to 1.3 µM.

Another experiment is described as follows: Inhibition of RIP1 in human U937 cells assessed as reduction in TNFalpha/QVD-Oph-induced necrosis after 24 hrs by Cell Titer-Glo luminescent cell viability assay.
Take `CN1C(=O)[C@@H](NC(=O)c2cc(Cc3ccccc3)on2)COc2ccc(-c3n[nH]c(=O)o3)cc21`: the IC50 turned out to be 0.0032 µM.
On the same count and under the same terms, for `CN1C(=O)[C@@H](NC(=O)c2ncc(Cc3ccccc3)o2)COc2ccccc21` the value was 0.001 µM; for `CN1C(=O)[C@@H](NC(=O)c2cc(Cc3ccccc3)n(C)n2)COc2ccccc21`, 0.01 µM; for `CN1C(=O)[C@@H](NC(=O)c2nnc(Cc3ccccc3)o2)COc2ccccc21`, 0.0079 µM.
Same read-out and setting: for `CN1C(=O)[C@@H](NC(=O)c2noc(Cc3ccccc3)n2)COc2ccccc21` the value was 0.005 µM.
On the same count and under the same terms, with `CN1C(=O)[C@@H](NC(=O)c2cnn(Cc3ccccc3)c2)COc2ccccc21` the figure was 0.631 µM; with `CN1C(=O)[C@@H](NC(=O)c2c[nH]c(Cc3ccccc3)n2)COc2ccccc21`, 2 µM.
On to `O=C(N[C@H]1CCOc2ccccc2NC1=O)c1cc(Cc2ccccc2)on1`, for which the IC50 was 0.631 µM.
The same measure, in the same setting: with `CN1C(=O)[C@@H](NC(=O)c2ncn(Cc3ccccc3)n2)COc2ccccc21` the figure was 0.0016 µM.
On the same count and under the same terms, for `CN1C(=O)[C@@H](NC(=O)c2cc(Cc3ccccc3)ccn2)COc2ccccc21` the value was 0.04 µM; for `CN1C[C@H](NC(=O)c2cc(Cc3ccccc3)on2)C(=O)N(C)c2ccccc21`, 0.02 µM; for `CC(=O)Nc1ccc2c(c1)N(C)C(=O)[C@@H](NC(=O)c1cc(Cc3ccccc3)on1)CO2`, 0.0079 µM.
For the compound `CC(C)Cc1cc(C(=O)N[C@H]2COc3ccccc3N(C)C2=O)no1`, the IC50 stood at 6.31 µM.
Same read-out and setting: for `CCCCCc1cc(C(=O)N[C@H]2COc3ccccc3N(C)C2=O)no1` the value was 0.126 µM; for `COC(=O)Nc1ccc2c(c1)N(C)C(=O)[C@@H](NC(=O)c1cc(Cc3ccccc3)on1)CO2`, 0.01 µM.
Turning to `CN1C(=O)[C@@H](NC(=O)c2cc(Cc3ccccc3)on2)COc2ccc(NS(C)(=O)=O)cc21`, the IC50 was 0.013 µM.
The same measure, in the same setting: for `CN1C(=O)[C@@H](NC(=O)c2cc(Cc3ccccc3)on2)COc2ccc(-c3cc[nH]n3)cc21` the value was 0.0063 µM; for `CN1C(=O)[C@@H](NC(=O)c2coc(Cc3ccccc3)n2)COc2ccccc21`, 2.51 µM.
For `CN1C(=O)[C@@H](NC(=O)c2cn(Cc3ccccc3)nn2)COc2ccccc21`, the concentration for half-maximal inhibition (IC50) came to 0.025 µM.
Still for that read-out and setting: for `CN1C(=O)[C@@H](NC(=O)c2cccc(Cc3ccccc3)c2)COc2ccccc21` the value was 0.398 µM; for `CN1C(=O)[C@@H](NC(=O)c2cc(CC3CCCCC3)on2)COc2ccccc21`, 0.501 µM.
Same read-out and setting: with `CN1C(=O)[C@@H](NC(=O)c2cn(Cc3ccccc3)cn2)COc2ccccc21` the figure was 0.0063 µM; with `CN1C(=O)[C@@H](NC(=O)c2nnn(Cc3ccccc3)n2)COc2ccccc21`, 0.0025 µM.
With `CCN1C(=O)[C@@H](NC(=O)c2cc(Cc3ccccc3)on2)COc2ccccc21`, the IC50 is 7.94 µM.
